{
  "source": "patent US20220411422A1",
  "about": "“ERBB RECEPTOR INHIBITORS” (Dizal (Jiangsu) Pharmaceutical Co., Ltd., priority 2018, published 2022)",
  "key": {"BT474 cells": {"test_system": "BT474 cells", "experiment": "BT474 anti-proliferation assay, MTS", "assay_type": "cell-based", "conditions": "Homo sapiens, BT-474, 72 h, read-out: HER2WT Amplification BT474 GI50", "experimental": "A compound's activity of selective inhibition for HER2 wild type amplification can be evaluated with BT474 cell line (ATCC® HTB-20™). The cell line expressed phosphorylated HER2 protein and its proliferation depended on the amplified gene, which could be used for in vitro PD and anti-proliferation assays.\nThe anti-proliferation activity of compounds were determined as following procedure: The BT474 cells were sorted in 384 well plates with the DMEM medium containing 10% FBS and […] overnight and then dosed with tested compounds at a series of concentrations (30 μM, 10 μM, 3 μM, 1 μM, 0.3 μM, 0.1 μM, 0.03 μM, 0.01 μM, 0.001 μM) on next day. Meanwhile, another cells plate was prepared for measuring G0 value on next day. The dosed plates were incubate for 72 h at 37° C. with 5% CO2 and the number of viable cells in each well of G0 or dosed plates were measured by MTS (CellTiter 96® AQueous One Solution Cell Proliferation Assay, Promega) endpoint. This assay is a colorimetric method for determining the number viable cells in the proliferation assay. Detection reagents (5 μl) was dispensed into per well, and the plates were incubated for 2 hrs at room temperature. Then, absorbance at 490 nm and 650 nm (reference wavelength) in each well was measured using the safile II. (Tecan). […]"}, "wild type EGFR": {"target": "T1, wild type EGFR (Homo sapiens, UniProt P00533)", "T1 construct": "which expresses wild type EGFR protein; endogenous in cells; host or cells: A431", "T1 sequence (P00533 25-1210)": "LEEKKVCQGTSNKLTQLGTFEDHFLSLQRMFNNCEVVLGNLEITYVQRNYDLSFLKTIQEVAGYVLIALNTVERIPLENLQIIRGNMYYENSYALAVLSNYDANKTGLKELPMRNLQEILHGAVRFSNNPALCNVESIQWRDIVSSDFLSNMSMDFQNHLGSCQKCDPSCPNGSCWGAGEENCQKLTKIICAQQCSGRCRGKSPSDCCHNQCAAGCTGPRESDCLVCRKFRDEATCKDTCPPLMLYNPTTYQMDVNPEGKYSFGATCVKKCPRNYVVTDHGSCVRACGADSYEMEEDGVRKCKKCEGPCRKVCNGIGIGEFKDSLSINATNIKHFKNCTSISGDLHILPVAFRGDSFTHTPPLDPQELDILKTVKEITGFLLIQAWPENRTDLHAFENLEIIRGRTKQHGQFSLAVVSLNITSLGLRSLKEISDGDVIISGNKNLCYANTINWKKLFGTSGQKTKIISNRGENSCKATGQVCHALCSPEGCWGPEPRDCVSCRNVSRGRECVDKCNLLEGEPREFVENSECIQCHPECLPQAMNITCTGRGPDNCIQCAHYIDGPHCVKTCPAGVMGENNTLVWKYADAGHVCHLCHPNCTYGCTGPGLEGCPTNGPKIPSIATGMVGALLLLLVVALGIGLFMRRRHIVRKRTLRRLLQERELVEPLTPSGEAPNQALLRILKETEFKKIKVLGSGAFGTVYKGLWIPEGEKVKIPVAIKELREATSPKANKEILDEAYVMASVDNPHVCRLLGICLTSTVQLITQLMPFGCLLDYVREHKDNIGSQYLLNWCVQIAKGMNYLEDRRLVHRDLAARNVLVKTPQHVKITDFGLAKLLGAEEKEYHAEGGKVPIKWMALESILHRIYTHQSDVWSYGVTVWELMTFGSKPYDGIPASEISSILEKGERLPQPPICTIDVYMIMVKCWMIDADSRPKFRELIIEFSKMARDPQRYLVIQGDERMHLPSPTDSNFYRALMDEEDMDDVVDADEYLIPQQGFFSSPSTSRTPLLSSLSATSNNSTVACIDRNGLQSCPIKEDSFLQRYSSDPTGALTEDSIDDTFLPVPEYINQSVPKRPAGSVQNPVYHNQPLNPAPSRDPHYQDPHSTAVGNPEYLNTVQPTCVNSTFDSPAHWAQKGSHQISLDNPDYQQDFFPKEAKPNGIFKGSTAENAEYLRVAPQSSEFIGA", "experiment": "pEGFR cellular activity in A431 cell line", "assay_type": "cell-based", "experimental": "A compound's activity of inhibition for EGFR WT can be evaluated with NCI-H838 (ATCC® CRL-5844™) and A431 cell line (the epidermoid carcinoma cell line A-431), which expresses wild type EGFR protein as the count screening to define the selectivity of the compound.\nThe compounds' inhibition of target modulation were determined as follows: NCI-H838 cells and A431 cells were sorted in 96 well plates (20000 cells/well) with the DMEM medium containing 1% FBS overnight and then treated with tested compounds at a series of concentrations (3 μM, 0.3 μM, 0.1 μM, 0.03 μM, 0.01 μM, 0.003 μM, 0.001 μM, 0.0001 μM). The plates were incubated for 4 h at 37° C. with 5% CO2 followed by the stimulation of recombinant hEGF (100 ng/ml for 10 Min, RD, Cat #236-EG) and then the EGFR (Y1068) phosphorylation level of cells in each well were measured with MSD Kit (MULTI-SPOT®96 4-Spot HB Prototype EGFR Triplex […]: pEGFR (Tyr1068), pEGFR (Tyr1173), Total EGFR (Cat #N45ZB-1). The assay is a electrochemiluminescent method (MESO SCALE DISCOVERY) for determining both phosphorylated and total EGFR of cells with an MSD SECTOR® Imager and then the ratio of p-EGFR/total EGFR can be generated by the machine. The percentage of inhibition was used the formula: % inhibition=100×[1−(ratio of sample well−ratio of Min ctrl well)/(ratio of Max−Ratio of Min ctrl well)]. […]"}, "[1]": {"experiment": "Blood brain barrier penetration assay in monkeys", "assay_type": "in vivo", "conditions": "CSF, oral; Table 5; monkey", "experimental": "In vitro blood, plasma and brain binding assay was carried out with equilibrium dialysis device. Diluted blood (1:1 with DPBS pH7.4), EDTA-anticoagulated plasma, and brain homogenate (1:3 with DPBS pH7.4) were spiked with 5 μM test compound (in triplicate) and dialyzed against equal volume of 150 μL 100 mM PBS buffer (pH7.4) at 37° C. for appropriate equilibration time in a slowly rotated plate. At the end of incubation, a 50 μL aliquot from the receiver side and a 5 μL from the donor chamber were taken. The 5 μL sample was further diluted with 45 μL of blank blood, plasma or brain homogenate. […] After centrifuging at 4000 rpm for 20 min, supernatant was diluted with 0.1% formic acid aqueous solution and analyzed for LC/MS/MS (API 4000, Applied Biosystems, Foster City). Unbound fraction (fu) of test compound were calculated by the ratio of the buffer side response to the brain homogenate/plasma/blood side response, and unbound fraction (fu,bl, fu,pl and fu,br) of test compound in non-diluted blood and tissue were calculated from measured fu in homogenate and diluted blood with the following equation: fu,bl (fu,br)=(1/D)/[(1/fu−1)+1/D)]. […]\nTotal brain levels, expressed as brain/blood ratio (Kp,brain) were measured by AUC(brain)/AUC(blood or plasma) in rodents after oral administration. […]\nKp,uu brain and Kp,uu CSF was calculated by the following equation: […]"}, "[2]": {"test_system": "Human Pgp/BCRP transporter", "experiment": "Human Pgp/BCRP transporter substrate assessment", "assay_type": "in vitro ADME"}, "pHER2 in tumor tissue": {"target": "T2, pHER2 in tumor tissue (Homo sapiens, UniProt P04626)", "T2 construct": "The SC, BM and LM models with HER2 overexpression; from tissue; host or cells: BT474cl subcutaneous xenograft tumour in mice", "T2 sequence (P04626 23-1255)": "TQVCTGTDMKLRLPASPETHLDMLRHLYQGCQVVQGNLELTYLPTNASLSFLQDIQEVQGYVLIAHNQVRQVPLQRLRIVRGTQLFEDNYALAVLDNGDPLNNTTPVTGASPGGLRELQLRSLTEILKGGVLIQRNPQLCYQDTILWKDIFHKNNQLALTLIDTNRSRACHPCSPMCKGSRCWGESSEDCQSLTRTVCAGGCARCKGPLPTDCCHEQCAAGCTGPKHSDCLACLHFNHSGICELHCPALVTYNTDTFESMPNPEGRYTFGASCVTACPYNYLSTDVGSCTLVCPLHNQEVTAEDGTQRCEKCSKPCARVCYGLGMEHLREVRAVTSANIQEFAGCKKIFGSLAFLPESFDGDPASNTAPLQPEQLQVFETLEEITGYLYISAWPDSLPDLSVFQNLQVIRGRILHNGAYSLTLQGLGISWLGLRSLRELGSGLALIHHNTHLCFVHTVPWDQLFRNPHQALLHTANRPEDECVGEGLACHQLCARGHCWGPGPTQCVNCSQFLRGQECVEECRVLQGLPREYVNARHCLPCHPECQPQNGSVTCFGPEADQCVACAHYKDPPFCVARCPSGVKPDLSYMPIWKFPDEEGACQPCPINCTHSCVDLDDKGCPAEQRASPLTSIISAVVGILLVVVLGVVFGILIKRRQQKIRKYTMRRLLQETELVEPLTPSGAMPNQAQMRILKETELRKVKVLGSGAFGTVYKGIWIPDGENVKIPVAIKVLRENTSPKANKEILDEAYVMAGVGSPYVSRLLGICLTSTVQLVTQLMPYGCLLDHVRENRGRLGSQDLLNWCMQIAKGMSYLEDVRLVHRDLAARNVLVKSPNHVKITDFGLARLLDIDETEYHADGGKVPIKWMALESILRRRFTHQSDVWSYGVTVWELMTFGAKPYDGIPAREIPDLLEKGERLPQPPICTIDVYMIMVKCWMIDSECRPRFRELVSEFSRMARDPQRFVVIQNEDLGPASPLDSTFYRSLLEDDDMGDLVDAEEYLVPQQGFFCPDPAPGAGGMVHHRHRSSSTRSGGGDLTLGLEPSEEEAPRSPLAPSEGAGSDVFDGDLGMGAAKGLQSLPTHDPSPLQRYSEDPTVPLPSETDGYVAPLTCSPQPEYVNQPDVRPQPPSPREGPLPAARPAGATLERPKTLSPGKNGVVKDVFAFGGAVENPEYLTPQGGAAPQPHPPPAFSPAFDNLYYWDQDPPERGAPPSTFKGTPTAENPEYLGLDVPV", "experiment": "PK/PD relationship in BT474cl SC model", "assay_type": "in vivo, mouse", "experimental": "The SC, BM and LM models with HER2 overexpression were treated with the Compound 6 at dosages of 25 mg/kg, 50 mg/kg, 100 mg/kg and 150 mg/kg. […] Moreover, the Compound 6 at dosages of 6.25 mg/kg, Capecitabine (400 mg/kg), T-DM1 (15 mg/kg), Compound 6 (6.25 mg/kg) in combination with Capecitabine (400 mg/kg) or T-DM1 (15 mg/kg) were used to treat the SC, and BM models with HER2 overexpression to check the tumor regression effect of Compound 6 in combination with other anti-cancer agent. […] Moreover, the PK and PD of Compound 6 in BT474cl SC model were tested."}},
  "data": [
    {"smiles": "COc1cc(O[C@H]2CCN(C)CC2(F)F)c2c(Nc3ccc(Oc4ccn5ncnc5c4)c(C)c3)ncnc2c1", "note": "(single isomer, unassigned) [Compound 6]", "values": [
      {"measurement": "GI50", "setting": "BT474 cells", "value": "~20", "unit": "nM"},
      {"measurement": "IC50", "setting": "wild type EGFR", "value": 1460, "unit": "nM"},
      {"measurement": "Kp uu", "setting": "[1]", "value": 4.1},
      {"measurement": "Human Pgp/BCRP transporter substrate", "setting": "[2]", "value": "No"},
      {"measurement": "relationship between plasma concentration and pHER2 inhibition in tumor tissue", "setting": "pHER2 in tumor tissue", "value": "positive correlation"}
    ]}
  ]
}
